In patent US10155756B2, “Pyrazolo[1,5-A]pyridine compounds and use thereof” (GUANGZHOU INSTITUTES OF BIOMEDICINE AND HEALTH, CHINESE …, priority 2014, dated 2018):
In brackets after ≈: the same amount, converted by molar mass. Counter-ions that a name gives are not always drawn. Like-named read-outs stand apart in the source and are kept apart here.

Columns and labels:
[1] = system: self-luminescent tuberculosis; assay: microbe, parasite or virus in culture; format: cell-based
[2] = system: Mycobacterium tuberculosis standard strain H37Rv; assay: MIC of Mycobacterium tuberculosis by a plate method; settings: 7H11 plates, 37° C. for 4 weeks, colony count
[3] = system: mycobacterium tuberculosis self-luminescent bacteria H37Ra; settings: for spleen anti-tuberculosis activity compared with the positive control Rifampicin: in vivo
in vivo = assay: in vivo; parameters: species or system SD rats; settings: rat; for bioavailability / AUC(0-inf) / Cmax / T^1/2 / Tmax: SD
Description: Example 55: Pharmacokinetic Studies of Compounds TJ170298 and TJ170385
1. Administration and Sample Collection a. Rat intravenous administration: SD rats 3, weight 180˜220 g. Fasting 12 h before administration, a small amount of food was allowed during the experiment, and water was free. The compounds TJ170298 and TJ170385 were administered intravenously at a dose of 2 mg/kg. The rats were respectively taken 0.3 mL orbital blood at 2 min, 10 min, 30 min, 1.0 h, 2.0 h, 3.0 h, 4.0 h, 6.0 h, 8.0 h, 12.0 h, 21 h, 24.0 h, 30 h, 36 h, 48 h, 60 h, 72 h after administration, which was then placed in heparinized test tube, centrifuged 10 min at 6000 rpm, and plasma was separated, preserved at 4° C. to be measured. […]
b. Rat oral administration: SD rats 3, weight 180˜220 g. Fasting for 12 h before administration, a small amount of food was allowed during the experiment, and water was free. The compounds TJ170298 and TJ170385 were orally administered at a dose of 10 mg/kg, respectively. The rats were respectively taken 0.3 mL orbital blood at 2 min, 10 min, 30 min, 1.0 h, 2.0 h, 3.0 h, 4.0 h, 6.0 h, 8.0 h, 12.0 h, 21 h, 24.0 h, 30 h, 36 h, 48 h, 60 h, 72 h after administration, which was then placed in heparinized test tube, centrifuged 10 min at 6000 rpm, and plasma was separated, preserved at 4° C. to be measured.
2. Determination of Plasma Samples a. Plasma Sample Treatment
150 μl of the internal standard solution ([…], acetonitrile solution) was added to 50 μL of the above plasma sample, mixed well; after eddy mixing for 2 min, centrifuge for 30 min (13000 rpm, 4° C.), supernatant was taken to another centriguge tube, and 20 μL of which was taken for LC/MS/MS analysis. […]
b. Preparation of Standard Curve
50 μL of rat blank plasma was taken, to which 10 μL of compound standard series solution was added to prepare compound plasma samples equivalent to plasma concentration of 20, 50, 100, 500, 1000, 2000, 4000, 6000, 12000, 40000 ng/mL. According to “plasma sample treatment” item, the standard curve was established. The concentration (X) of an analyte is as the abscissa, the peak area ratio (y) of the analyte and the internal standard is as the ordinate, and the regression is performed by the weighted (W=1/x2) least squares method to obtain the linear regression Equation, that is, the standard curve.
C. Data Processing and Analysis
The pharmacokinetic parameters of rats after administration were calculated by DAS 2.0 software.

[4] = system: clinical sorted MDR-TB P91; assay: microbe, parasite or virus in culture; format: cell-based; settings: Mycobacterium tuberculosis, MDRTBP91
[5] = system: clinical sorted MDR-TB P105; assay: microbe, parasite or virus in culture; format: cell-based; settings: Mycobacterium tuberculosis, MDRTBP105
[6] = system: clinical sorted MDR-TB P103; assay: microbe, parasite or virus in culture; format: cell-based; settings: Mycobacterium tuberculosis, MDRTBP103
[7] = system: Mycobacterium tuberculosis standard strain H37Rv; assay: Plate MIC of Example 53, standard strain H37Rv; format: cell-based
[8] = Mycobacterium tuberculosis, 72 h, read-out: MIClux
[9] = Mycobacterium tuberculosis, 72 h; read-out: MIClux

Cc1nn2ccccc2c1C(=O)NCc1ccc(N2CCC(c3ccc(OC(F)(F)F)cc3)CC2)cc1 [TJ170381, 2-methyl-N-(4-(4-(4-(trifluoromethoxy)phenyl)piperidine-1-yl)benzyl) pyrazolo [1,5-a] pyridine-3-carboxamide]
MIC [1, 8]: < 1 µg/mL | MIC [2]: 0.1 µg/mL

NNC(=O)c1ccncc1 [isoniazid, reference compound]
MIC [2]: <=0.1 μg/mL

Cc1nn2ccc(Cl)cc2c1C(=O)NCc1ccc(N2CCC(c3ccc(OC(F)(F)F)cc3)CC2)cc1 [TJ170372, 5-chloro-2-methyl-N-(4-(4-(4-(trifluoromethoxy)phenyl)piperidine-1-yl)benzyl) pyrazolo [1,5-a] pyridine-3-carboxamide]
MIC [1, 9]: < 1 µg/mL | in vivo anti-tuberculosis activity (luminous values within live mice) [3]: obvious in vivo anti-tuberculosis activity | in vivo anti-tuberculosis activity compared with the positive control Rifampicin [3]: equal to or better than that of the positive control Rifampicin | spleen anti-tuberculosis activity compared with the positive control Rifampicin [3]: bad than that of the positive control Rifampicin | MIC [2]: 0.01 µg/mL

O=C(NCc1ccc(N2CCC(c3ccc(OC(F)(F)F)cc3)CC2)cc1)c1c(C2CC2)nn2ccc(Cl)cc12 [TJ170375, 5-chloro-2-cyclopropyl-N-(4-(4-(4-(trifluoromethoxy)phenyl)piperidine-1-substituted)benzyl) pyrazolo [1,5-a] pyridine-3-carboxamide]
MIC [1, 9]: < 1 µg/mL | MIC [2]: 0.1 µg/mL

CCc1nn2ccc(Cl)cc2c1C(=O)NCc1ccc(N2CCC(c3ccc(OC(F)(F)F)cc3)CC2)cc1 [TJ170298 (hydrochloride), 5-chloro-2-ethyl-N-(4-(4-(4-(trifluoromethoxy)phenyl)piperidine-1-yl)benzyl) pyrazolo [1,5-a]pyridine-3-carboxamide]
bioavailability (in vivo): 24.1% | AUC(0-inf) (in vivo; iv, 2 mg/kg): 3900 ng·h/mL | Cmax (in vivo; iv, 2 mg/kg): 1550 ng/mL | T^1/2 (in vivo; iv, 2 mg/kg): 19.975 h | Tmax (in vivo; iv, 2 mg/kg): 0.033 h | AUC(0-inf) (in vivo; po, 10 mg/kg): 4700 ng·h/mL | Cmax (in vivo; po, 10 mg/kg): 509 ng/mL | T^1/2 (in vivo; po, 10 mg/kg): 19.699 h | Tmax (in vivo; po, 10 mg/kg): 2 h

CO[C@H]1/C=C/O[C@@]2(C)Oc3c(C)c(O)c4c(O)c(c(/C=N/N5CCN(C)CC5)c(O)c4c3C2=O)NC(=O)/C(C)=C\C=C\[C@H](C)[C@H](O)[C@@H](C)[C@@H](O)[C@@H](C)[C@H](OC(C)=O)[C@@H]1C [RIF, rifampicin, reference compound]
MIC [4]: 1 to 10 µg/mL (≈ 1.22 to 12.2 µM) | MIC [5]: > 10 µg/mL | MIC [6]: > 10 µg/mL

CCc1nn2ccc(Cl)cc2c1C(=O)NCc1ccc(N2CCC(c3ccc(OC(F)(F)F)cc3)CC2)cc1 [TJ170298, 5-chloro-2-ethyl-N-(4-(4-(4-(trifluoromethoxy)phenyl)piperidine-1-yl)benzyl) pyrazolo [1,5-a]pyridine-3-carboxamide]
MIC [1, 8]: < 1 µg/mL | MIC [4]: < 0.075 µg/mL | MIC [5]: 0.15 µg/mL (≈ 0.269 µM) | MIC [6]: < 0.075 µg/mL | MIC [7]: 0.012 µg/mL | in vivo anti-tuberculosis activity (luminous values within live mice) [3]: obvious in vivo anti-tuberculosis activity | in vivo anti-tuberculosis activity compared with the positive control Rifampicin [3]: equal to or better than that of the positive control Rifampicin | spleen anti-tuberculosis activity compared with the positive control Rifampicin [3]: bad than that of the positive control Rifampicin | pharmacokinetic properties (in words) (in vivo): good pharmacokinetic properties

CCc1nn2ccc(Cl)cc2c1C(=O)NCc1ccc(C(F)(F)F)cc1 [TJ170322]
MIC [1, 9]: < 1 µg/mL | MIC [2]: 0.1 µg/mL

Cc1ccn2nc(C)c(C(=O)NCc3ccc(N4CCC(c5ccc(OC(F)(F)F)cc5)CC4)cc3)c2c1 [TJ170385, 2,5-dimethyl-N-(4-(4-(4-(trifluoromethoxy)phenyl)piperidine-1-yl)benzyl) pyrazolo [1,5-a] pyridine-3-carboxamide]
MIC [1, 8]: < 1 µg/mL | in vivo anti-tuberculosis activity (luminous values within live mice) [3]: obvious in vivo anti-tuberculosis activity | in vivo anti-tuberculosis activity compared with the positive control Rifampicin [3]: equal to or better than that of the positive control Rifampicin | spleen anti-tuberculosis activity compared with the positive control Rifampicin [3]: bad than that of the positive control Rifampicin | bioavailability (in vivo): 94.5% | AUC(0-inf) (in vivo; iv, 2 mg/kg): 2030 ng·h/mL | Cmax (in vivo; iv, 2 mg/kg): 1040 ng/mL | T^1/2 (in vivo; iv, 2 mg/kg): 10.933 h | AUC(0-inf) (in vivo; po, 10 mg/kg): 9590 ng·h/mL | Cmax (in vivo; po, 10 mg/kg): 644 ng/mL | T^1/2 (in vivo; po, 10 mg/kg): 27.374 h | Tmax (in vivo; po, 10 mg/kg): 2 h | pharmacokinetic properties (in words) (in vivo): good pharmacokinetic properties | MIC [2]: 0.01 µg/mL

Cc1nn2ccc(Br)cc2c1C(=O)NCc1ccc(N2CCC(c3ccc(OC(F)(F)F)cc3)CC2)cc1 [TJ830008, 5-bromo-2-methyl-N-(4-(4-(4-(trifluoromethoxy)phenyl)piperidine-1-yl)benzyl) pyrazolo [1,5-a] pyridine-3-carboxamide]
MIC [1, 9]: < 1 µg/mL

Cc1nn2ccc(C(C)C)cc2c1C(=O)NCc1ccc(N2CCC(c3ccc(OC(F)(F)F)cc3)CC2)cc1 [TJ830073, 5-isopropyl-2-methyl-N-(4-(4-(4-(trifluoromethoxy)phenyl)piperidine-1-yl)benzyl) pyrazolo [1,5-a] pyridine-3-carboxamide]
MIC [1, 9]: 1 to 10 µg/mL (≈ 1.82 to 18.2 µM)

Cc1ccn2nc(C)c(C(=O)NCc3ccc(N4CCN(c5ccc(F)cc5)CC4)cc3)c2c1 [TJ830152, N-(4-(4-(4-fluorophenyl)piperazine-1-yl)benzyl)-2,5-dimethyl-pyrazolo [1,5-a] pyridine-3-carboxamide]
MIC [1, 9]: < 1 µg/mL

CCc1nn2ccc(OC)cc2c1C(=O)NCc1ccc(N2CCC(c3ccc(OC(F)(F)F)cc3)CC2)cc1 [TJ064889, 5-methoxy-2-ethyl-N-(4-(4-(4-(trifluoromethoxy)phenyl)piperidine-1-substituted)benzyl) pyrazolo[1,5-a] pyridine-3-carboxamide]
MIC [1, 9]: < 1 µg/mL

Cc1nn2c(C)cccc2c1C(=O)NCc1ccc(N2CCC(c3ccc(OC(F)(F)F)cc3)CC2)cc1 [TJ064851, 2,7-dimethyl-N-(4-(4-(4-(trifluoromethoxy)phenyl)piperidine-1-yl)benzyl) pyrazolo[1,5-a] pyridine-3-carboxamide]
MIC [1, 9]: 1 to 10 µg/mL (≈ 1.91 to 19.1 µM)
